Literature values in patent publication US20030170847A1, “Genes involved in isoprenoid compound production” (priority 2001, published 2003).

Columns and labels:
[1] = system: nonphotosynthetic bacterial CrtY-type of lycopene cyclases; details: Cunningham et al., The Plant Cell 1994
[2] = system: CrtL-type of lycopene cyclases; details: Cunningham et al., The Plant Cell 1994

Row | SMILES | inhibition of CrtY-type of lycopene cyclases [1] | inhibition of CrtL-type of lycopene cyclases [2]
1 | CCN(CC)CCOc1ccc(C)cc1.Cl [MPTA, 2-(4-methylphenoxy)-triethylamine hydrochloride] | not | specifically inhibit
2 | CCN(CC)CCSc1ccc(Cl)cc1.Cl [CPTA, 2-(4-chlorophenylthio)-triethylamine hydrochloride] | not | specifically inhibit
